Data: patent publication US8084457B2, “Pharmaceutically active 4,6-disubstituted aminopyrimidine derivatives as modulators of protein kinases” (Lead Discovery Center GmbH, priority 2003, dated 2011)

Experiments:
Type in all cases: biochemical
[1] = target: T1, CDK9/Cyclin T1 (Homo sapiens, UniProt P50750); assay: Kinase assay using CDK9/Cyclin T1; settings: read-out: CDK9 (activity range)
T1 construct: made in house; host or cells: HEK293 cells, recombinant adenovirus
In short: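 Recombinant CDK9/Cyclin T1 produced via adenoviral expression from gateway-cloned cDNAs. Kinase reaction run essentially per a published protocol.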

[2] = target: T2, CDK2/CyclinA (Homo sapiens, UniProt P24941); assay: Kinase assay determining CDK2/CyclinA activity; settings: read-out: CDK2 (activity range)
T2 construct: purchased Proqinase
Protocol: Kinase Assays Determining CDK2/CyclinA and CDK5/p35 Activity:
Kinase assays were performed as described by the manufacturers recommendations (Proqinase for CDK2/CyclinA and Upsate for CDK5/p35).

[3] = target: CDK4 (Homo sapiens, UniProt P11802); assay: Kinase assay, CDK4 activity range (Table 2)
[4] = target: CDK1 (Homo sapiens, UniProt P06493); assay: General kinase assay, selectivity panel: CDK1; settings: 10 μM of compound, in comparison to DMSO (0% inhibition)
Protocol: (§1) The inhibitory effect of compounds according to the present invention on the activity of protein kinases, depicted in Table 1, can be measured according to the following protocol:
(§2) Pipettinq Sequence: • 1) Add 10 μl 4 fold concentrated Substrate+4 fold concentrated ATP in 3 fold concentrated Reaction Buffer to each well of Assay Plate • 2) Add 10 μl 4 fold concentrated inhibitor in 4% DMSO in H2O to each well except to C− and C+ wells • 3) Add 10 μl 4% DMSO in H2O to C− and C+ wells • 4) Add 10 μl 500 mM EDTA in H2O to − wells • 5) Add 10 μl 50 μCi/ml Adenosine 5′-[γ-^33P]triphosphate in H2O to each well • 6) Add 10 μl 4 fold concentrated kinase in Reaction Buffer to each well • 7) Incubate 1 hr at room temperature • 8) Add 10 μl 50 mM EDTA in H2O to each well except to C− wells • 9) Prepare MAPH plates by adding 200 μl 0.75% H3PO4 to each well • 10) Exhaust 0.75% H3PO4 using Millipore vacuum station • 11) Add 60 μl 0.75% H3PO4 to each well of MAPH Filter Plate • 12) Transfer 30 μl sample per well from Assay Plate to corresponding well of MAPH Filter Plate • 13) Incubate 30 min at room temperature • 14) Wash each well of MAPH Filter Plates 3× with 200 μl 0.75% H3PO4 using Millipore vacuum station. • 15) Add 20 μl Scintillation Liquid to each well of MAPH Filter Plate • 16) Seal MAPH Filter Plate • 17) Store MAPH Filter Plate 30 min in darkness • 18) Quantify radioactivity
(§3) The activity of these protein kinases is depicted as % inhibition in the presence of 10 μM of compound in comparison to DMSO (0% inhibition).

[5] = target: EGFR (Homo sapiens, UniProt P00533); assay: General kinase assay, selectivity panel: EGFR; settings: 10 μM of compound, in comparison to DMSO (0% inhibition)
Protocol: as §1, §2, §3

[6] = target: GSK-3β (Homo sapiens, UniProt P49841); assay: General kinase assay, selectivity panel: GSK-3β; settings: 10 μM of compound, in comparison to DMSO (0% inhibition)
Protocol: as §1, §2, §3

[7] = target: p56 Lck (Homo sapiens, UniProt P06239); assay: General kinase assay, selectivity panel: p56 Lck; settings: 10 μM of compound, in comparison to DMSO (0% inhibition)
Protocol: as §1, §2, §3

Sequence of CDK4 (P11802 whole entry, species assumed): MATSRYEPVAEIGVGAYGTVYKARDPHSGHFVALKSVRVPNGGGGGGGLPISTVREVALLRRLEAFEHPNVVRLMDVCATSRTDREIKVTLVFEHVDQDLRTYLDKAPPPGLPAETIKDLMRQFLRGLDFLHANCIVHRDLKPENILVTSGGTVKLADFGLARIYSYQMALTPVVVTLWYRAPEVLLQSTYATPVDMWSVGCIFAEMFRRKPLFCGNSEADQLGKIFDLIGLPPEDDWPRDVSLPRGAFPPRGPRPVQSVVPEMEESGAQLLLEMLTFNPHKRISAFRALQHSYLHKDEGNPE
Sequence of CDK4 (P24385 whole entry partner, species assumed): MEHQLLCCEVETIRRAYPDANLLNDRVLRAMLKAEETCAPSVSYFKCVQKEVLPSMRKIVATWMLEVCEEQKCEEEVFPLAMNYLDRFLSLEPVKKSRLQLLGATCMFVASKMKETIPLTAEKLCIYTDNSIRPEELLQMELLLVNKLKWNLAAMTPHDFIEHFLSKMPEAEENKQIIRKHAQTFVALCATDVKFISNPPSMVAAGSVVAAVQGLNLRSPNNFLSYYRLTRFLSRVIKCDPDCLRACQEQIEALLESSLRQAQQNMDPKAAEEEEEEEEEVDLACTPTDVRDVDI
T1 sequence (P50750 whole entry): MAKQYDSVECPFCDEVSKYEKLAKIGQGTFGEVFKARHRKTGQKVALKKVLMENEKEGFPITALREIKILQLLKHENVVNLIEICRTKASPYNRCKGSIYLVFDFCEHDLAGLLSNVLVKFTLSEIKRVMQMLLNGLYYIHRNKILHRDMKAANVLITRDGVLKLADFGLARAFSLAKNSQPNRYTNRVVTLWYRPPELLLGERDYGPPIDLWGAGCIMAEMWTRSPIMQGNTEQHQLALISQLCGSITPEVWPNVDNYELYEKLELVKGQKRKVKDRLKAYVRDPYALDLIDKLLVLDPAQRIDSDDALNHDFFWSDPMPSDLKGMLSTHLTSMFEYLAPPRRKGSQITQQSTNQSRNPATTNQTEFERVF
T1 sequence (O60563 whole entry partner): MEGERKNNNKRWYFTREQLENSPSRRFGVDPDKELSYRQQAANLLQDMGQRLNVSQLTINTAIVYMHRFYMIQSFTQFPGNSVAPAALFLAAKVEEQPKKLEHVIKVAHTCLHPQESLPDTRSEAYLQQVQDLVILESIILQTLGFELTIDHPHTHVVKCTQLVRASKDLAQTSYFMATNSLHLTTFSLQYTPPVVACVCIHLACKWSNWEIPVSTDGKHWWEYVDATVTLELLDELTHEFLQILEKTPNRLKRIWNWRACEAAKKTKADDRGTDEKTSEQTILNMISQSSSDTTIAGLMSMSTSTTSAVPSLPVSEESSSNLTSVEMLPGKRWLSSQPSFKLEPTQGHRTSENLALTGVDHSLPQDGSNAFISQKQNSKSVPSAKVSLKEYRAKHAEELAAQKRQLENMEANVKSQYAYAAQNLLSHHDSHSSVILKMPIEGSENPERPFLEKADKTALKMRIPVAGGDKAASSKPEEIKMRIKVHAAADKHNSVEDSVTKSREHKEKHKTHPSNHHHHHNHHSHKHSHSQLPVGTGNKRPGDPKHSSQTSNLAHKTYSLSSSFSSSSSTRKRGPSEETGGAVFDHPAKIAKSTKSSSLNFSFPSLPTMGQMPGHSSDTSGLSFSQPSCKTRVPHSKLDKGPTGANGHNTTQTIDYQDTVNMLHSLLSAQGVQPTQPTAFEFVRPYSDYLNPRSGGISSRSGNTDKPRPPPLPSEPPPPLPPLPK
Sequence of p56 Lck (P06239 whole entry): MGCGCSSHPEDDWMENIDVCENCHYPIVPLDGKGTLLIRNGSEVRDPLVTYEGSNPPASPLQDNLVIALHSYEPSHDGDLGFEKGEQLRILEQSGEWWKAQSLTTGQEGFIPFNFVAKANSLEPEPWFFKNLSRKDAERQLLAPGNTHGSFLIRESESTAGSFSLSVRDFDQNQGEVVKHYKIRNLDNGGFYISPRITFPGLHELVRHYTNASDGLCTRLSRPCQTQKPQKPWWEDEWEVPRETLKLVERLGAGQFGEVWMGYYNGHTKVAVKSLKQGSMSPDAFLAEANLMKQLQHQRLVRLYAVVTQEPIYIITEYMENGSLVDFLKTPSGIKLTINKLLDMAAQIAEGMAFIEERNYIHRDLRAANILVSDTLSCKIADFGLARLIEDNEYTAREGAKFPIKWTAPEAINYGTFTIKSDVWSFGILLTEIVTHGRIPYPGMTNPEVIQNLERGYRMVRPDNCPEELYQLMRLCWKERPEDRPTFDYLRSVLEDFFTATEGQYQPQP
Sequence of CDK1 (P06493 whole entry, species assumed): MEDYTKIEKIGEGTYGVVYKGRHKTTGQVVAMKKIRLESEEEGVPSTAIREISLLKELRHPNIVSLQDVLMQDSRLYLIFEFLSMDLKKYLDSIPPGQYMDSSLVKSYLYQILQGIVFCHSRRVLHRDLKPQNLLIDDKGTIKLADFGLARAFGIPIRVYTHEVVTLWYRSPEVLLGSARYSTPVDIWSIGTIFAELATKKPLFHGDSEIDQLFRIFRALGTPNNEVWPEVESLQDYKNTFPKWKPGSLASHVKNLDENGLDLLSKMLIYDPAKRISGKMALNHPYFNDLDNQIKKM
Sequence of CDK1 (P14635 whole entry partner, species assumed): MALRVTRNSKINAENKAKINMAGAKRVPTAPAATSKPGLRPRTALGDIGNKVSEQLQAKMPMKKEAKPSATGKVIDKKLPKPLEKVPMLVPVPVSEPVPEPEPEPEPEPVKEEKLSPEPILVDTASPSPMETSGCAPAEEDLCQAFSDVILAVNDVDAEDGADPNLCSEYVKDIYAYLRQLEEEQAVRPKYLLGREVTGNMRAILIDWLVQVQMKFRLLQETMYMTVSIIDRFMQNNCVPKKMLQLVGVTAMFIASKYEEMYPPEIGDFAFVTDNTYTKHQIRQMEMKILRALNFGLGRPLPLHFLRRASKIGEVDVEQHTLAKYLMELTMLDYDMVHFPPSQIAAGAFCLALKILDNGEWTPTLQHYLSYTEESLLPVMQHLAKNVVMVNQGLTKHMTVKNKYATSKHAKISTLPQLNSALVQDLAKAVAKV
Sequence of EGFR (P00533 25-1210, species assumed): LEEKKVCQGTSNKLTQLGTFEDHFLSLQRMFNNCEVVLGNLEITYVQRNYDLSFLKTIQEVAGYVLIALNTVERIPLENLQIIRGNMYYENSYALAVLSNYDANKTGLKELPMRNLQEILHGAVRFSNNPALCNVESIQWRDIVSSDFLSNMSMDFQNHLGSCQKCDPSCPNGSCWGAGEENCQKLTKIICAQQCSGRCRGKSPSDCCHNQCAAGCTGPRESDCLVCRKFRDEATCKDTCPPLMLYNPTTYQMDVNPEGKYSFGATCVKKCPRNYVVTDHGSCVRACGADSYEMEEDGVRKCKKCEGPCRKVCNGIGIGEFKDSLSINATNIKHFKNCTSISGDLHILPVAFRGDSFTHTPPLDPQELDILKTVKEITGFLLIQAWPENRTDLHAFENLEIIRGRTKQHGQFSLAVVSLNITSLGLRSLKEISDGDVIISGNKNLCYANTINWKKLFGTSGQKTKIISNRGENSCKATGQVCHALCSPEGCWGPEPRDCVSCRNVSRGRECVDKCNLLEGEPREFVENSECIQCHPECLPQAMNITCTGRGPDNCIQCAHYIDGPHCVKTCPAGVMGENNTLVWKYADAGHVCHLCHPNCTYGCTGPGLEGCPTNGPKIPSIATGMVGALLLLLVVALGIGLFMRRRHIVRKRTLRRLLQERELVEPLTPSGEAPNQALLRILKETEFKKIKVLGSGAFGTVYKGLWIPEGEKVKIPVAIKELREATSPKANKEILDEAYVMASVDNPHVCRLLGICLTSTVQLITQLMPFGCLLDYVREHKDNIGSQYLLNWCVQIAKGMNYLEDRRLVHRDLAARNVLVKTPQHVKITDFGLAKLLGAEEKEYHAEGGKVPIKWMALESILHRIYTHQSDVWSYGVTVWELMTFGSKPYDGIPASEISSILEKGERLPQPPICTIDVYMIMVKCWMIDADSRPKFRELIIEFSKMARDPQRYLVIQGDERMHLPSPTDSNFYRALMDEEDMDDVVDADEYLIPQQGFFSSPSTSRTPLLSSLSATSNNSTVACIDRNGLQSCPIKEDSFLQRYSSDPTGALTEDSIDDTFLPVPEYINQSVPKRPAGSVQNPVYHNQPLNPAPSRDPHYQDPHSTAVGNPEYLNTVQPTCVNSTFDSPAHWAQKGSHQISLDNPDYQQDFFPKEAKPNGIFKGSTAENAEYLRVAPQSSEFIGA
Sequence of GSK-3β (P49841 whole entry, species assumed): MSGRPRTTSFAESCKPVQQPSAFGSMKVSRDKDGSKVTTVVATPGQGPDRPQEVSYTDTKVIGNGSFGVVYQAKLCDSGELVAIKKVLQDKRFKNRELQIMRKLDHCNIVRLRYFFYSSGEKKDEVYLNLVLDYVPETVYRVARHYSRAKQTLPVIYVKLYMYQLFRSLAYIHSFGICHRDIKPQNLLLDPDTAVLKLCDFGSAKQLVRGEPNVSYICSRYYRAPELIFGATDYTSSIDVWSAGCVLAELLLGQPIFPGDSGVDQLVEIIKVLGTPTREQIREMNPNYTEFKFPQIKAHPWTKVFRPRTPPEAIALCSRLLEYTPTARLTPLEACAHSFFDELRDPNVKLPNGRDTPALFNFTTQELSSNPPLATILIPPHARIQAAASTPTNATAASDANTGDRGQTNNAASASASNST

SMILES	IC50 [1] [µM]	IC50 [2] [µM]	IC50 [3] [µM]	CDK1 (% inhibition) [4]	EGFR (% inhibition) [5]	GSK-3β (% inhibition) [6]	p56 Lck (% inhibition) [7]
COc1ccccc1-c1cc(Nc2ccc(C(=O)N[C@@H]3CCCC[C@H]3N)cc2)ncn1 (racemic) [(83)]	0.001 to 1	1 to 10	1 to 10	–	–	–	–
COc1ccccc1-c1cc(Nc2ccc(NC(=O)C3CCCN(C)C3)cc2)ncn1 (centres unmarked) [(87)]	0.001 to 1	1 to 10	1 to 10	–	–	–	–
COc1ccccc1-c1cc(Nc2ccc(NC(=O)[C@@H]3CCCCN3)cc2)ncn1 [(30)]	0.001 to 1	1 to 10	0.001 to 1	–	–	–	–
COc1cccc(-c2cc(Nc3ccc(NC(=O)[C@@H]4CCCCN4)cc3)ncn2)c1OC [(186)]	1 to 10	10 to 250	1 to 10	–	–	–	–
COc1ccccc1-c1cc(Nc2ccc(NC(=O)[C@@H](N)c3ccccc3)cc2)ncn1 [(81)]	0.001 to 1	1 to 10	1 to 10	–	–	–	–
COc1ccccc1-c1cc(Nc2ccc(NS(C)(=O)=O)cc2)ncn1 [(33)]	0.001 to 1	0.001 to 1	1 to 10	–	–	–	–
COc1ccccc1-c1cc(Nc2ccc(N3CCCC3=O)cc2)ncn1 [(9)]	0.001 to 1	0.001 to 1	0.001 to 1	–	–	–	–
CC(=O)Nc1cccc(-c2cc(Nc3ccc(C)c(NS(C)(=O)=O)c3)ncn2)c1 [(104)]	0.001 to 1	1 to 10	10 to 250	–	–	–	–
COc1ccccc1-c1cc(Nc2ccc(N)cc2)ncn1 [(22)]	0.001 to 1	0.001 to 1	1 to 10	–	–	–	–
COc1ccccc1-c1cc(Nc2ccc(NC(=O)[C@H]3CCCCN3)cc2)ncn1 [(69)]	0.001 to 1	1 to 10	0.001 to 1	–	–	–	–
COc1ccccc1-c1cc(Nc2ccc(C(=O)NC3CCCNC3)cc2)ncn1 (centres unmarked) [(86)]	0.001 to 1	0.001 to 1	0.001 to 1	–	–	–	–
CC(C)Oc1ccccc1-c1cc(Nc2ccc(NC(=O)c3ccc(N)cc3)cc2)ncn1 [Compound 58]	–	–	–	a (inhibition greater than 80%: a)	b (inhibition between 80 and 50%: b)	a (inhibition greater than 80%: a)	a (inhibition greater than 80%: a)
Cc1ccc(Nc2cc(-c3cccc(O)c3)ncn2)cc1NS(C)(=O)=O [(105)]	0.001 to 1	0.001 to 1	10 to 250	–	–	–	–
CNC(C)(C)C(=O)Nc1ccc(Nc2cc(-c3ccccc3OC)ncn2)cc1 [(118)]	0.001 to 1	1 to 10	0.001 to 1	–	–	–	–
CC(C)Oc1ccccc1-c1cc(Nc2ccc(C(=O)N[C@@H]3CCCC[C@H]3N)cc2)ncn1 (racemic) [(199)]	0.001 to 1	1 to 10	1 to 10	–	–	–	–
O=Cc1cccc(-c2cc(Nc3ccc(NC(=O)[C@@H]4CCCCN4)cc3)ncn2)c1 [(168)]	1 to 10	–	1 to 10	–	–	–	–
COc1ccccc1-c1cc(Nc2ccc(C(N)=O)cc2)ncn1 [(14)]	0.001 to 1	0.001 to 1	10 to 250	–	–	–	–
C=Cc1ccccc1-c1cc(Nc2ccc(NC(=O)C(C)(C)C)cc2)ncn1 [(126)]	1 to 10	10 to 250	–	–	–	–	–
COc1ccccc1-c1cc(Nc2ccc(NC(=O)C(N)c3ccc4ccccc4c3)cc2)ncn1 (centres unmarked) [(146)]	0.001 to 1	1 to 10	–	–	–	–	–
Nc1ccc(C(=O)Nc2ccc(Nc3cc(/C=C/c4ccccc4)ncn3)cc2)cc1 [(32)]	10 to 250	10 to 250	–	–	–	–	–
COc1ccccc1-c1cc(Nc2ccc(NC(=O)[C@@H]3Cc4ccccc4CN3)cc2)ncn1 [(65)]	0.001 to 1	1 to 10	10 to 250	–	–	–	–
Cc1ccc(Nc2cc(-c3ccccc3O)ncn2)cc1NS(C)(=O)=O [(181)]	0.001 to 1	0.001 to 1	–	–	–	–	–
COc1ccccc1-c1cc(Nc2cccc(S(C)(=O)=O)c2)ncn1 [(185)]	0.001 to 1	0.001 to 1	–	–	–	–	–
COc1ccccc1-c1cc(Nc2ccc(NC(=O)NCc3ccc(C)cc3)cc2)ncn1 [(112)]	0.001 to 1	10 to 250	–	–	–	–	–
CC(C)Oc1ccccc1-c1cc(Nc2ccc(NC(=O)[C@@H]3CCCCN3)cc2)ncn1 [(188)]	0.001 to 1	1 to 10	0.001 to 1	–	–	–	–
COc1ccccc1-c1cc(Nc2ccc(NC(=O)CC(C)(C)C)cc2)ncn1 [(42)]	1 to 10	1 to 10	–	–	–	–	–
